Literature values in patent publication US9854807B2, “Potentiation of fixed coppers and other pesticides containing copper and supplementing plant nutrition” (priority 2014, dated 2018).

Settings: terms used by Richardson

SMILES: [Cl-].[Cu+2].[Cu+2].[OH-].[OH-].[OH-] [Copper(2) Oxychloride]
- solubility in water: essentially insoluble in water
